Assay results: article PMC4516313 (Journal of Medicinal Chemistry, 2015)
Like-named read-outs stand apart in the source and are kept apart here.

Legend:
monkeys [1] = conditions: cited from earlier work
monkeys [2] = conditions: 5 day treatment; cited from earlier work
cocaine abusers = conditions: cited from earlier work
D3R [3] = conditions: primates, PET, oral 1.0 mg/kg; cited from earlier work
rats [4] = conditions: unpublished results
rats [5] = test system: rats
D3R [6] = conditions: cited from earlier work
humans = conditions: cited from earlier work
rhesus monkeys [7] = conditions: cited from earlier work
rats [8] = conditions: cited from earlier work
[9] = test system: 64 radioligand/enzyme assays; conditions: 10 μM; e.g. α1 adrenergic, α2 adrenergic, histamine H1, sodium channel site 2, CCK1, NK2
rhesus monkeys [10] = conditions: 5 day treatment, 3.0 mg/kg i.v., two of three monkeys
monkeys [11] = conditions: monkeys trained to discriminate cocaine, preliminary unpublished results
rats [12] = conditions: cited from earlier work; remark: listed apart in the source
rats [13] = conditions: cited from earlier work; remark: listed apart in the source
tobacco smokers = conditions: smokers after overnight abstinence; cited from earlier work
abstinent smokers = conditions: cited from earlier work
[14] = test system: overweight and obese subjects; conditions: cited from earlier work
squirrel monkeys = conditions: cited from earlier work
rhesus monkeys [15] = conditions: cited from earlier work; remark: listed apart in the source
[16] = history of long access (6 h per day, 6 days per week)
[17] = history of short access (1 h per day, 3 days per week)

Compound: O=C1CC2(CCCC2)CC(=O)N1CCCCN1CCN(c2ncccn2)CC1 [buspirone]
- cocaine-maintained vs food-reinforced behavior (monkeys [1]; monkeys self-administering cocaine): decreased cocaine-maintained behavior to a larger degree than food-reinforced behavior
- cocaine self-administration vs food-reinforced responding (monkeys [1]; rhesus monkeys, continuous infusions): decreased cocaine self-administration to a greater degree than food-reinforced responding
- cocaine choice (monkeys [2]): increased cocaine choice
- cocaine use (cocaine abusers; 60 mg): increased cocaine use in women
- treatment-emergent adverse events (cocaine abusers): did not include increases in blood pressure
- D3R occupancy (D3R [3]): < 20%

Compound: O=C(NCC[C@H](O)CN1CCN(c2cccc(Cl)c2Cl)CC1)c1cc2ccccc2[nH]1 [(S)-1]
- effect on 7-OH DPAT-induced yawning (rats [4]): attenuated 7-OH DPAT-induced yawning in rats
- Dunnett's test p vs vehicle, PR break points normalized to baseline (rats [5]; 3.0 mg/kg i.p.): < 0.01
- Dunnett's test p vs vehicle, number of METH injections (rats [5]; 3.0 mg/kg i.p.): > 0.05
- Dunnett's test p vs vehicle, PR break points normalized to baseline (rats [5]; 10 mg/kg i.p.): < 0.001
- Dunnett's test p vs vehicle, number of METH injections (rats [5]; 10 mg/kg i.p.): < 0.001

Compound: O=C(NCC[C@@H](O)CN1CCN(c2cccc(Cl)c2Cl)CC1)c1cc2ccccc2[nH]1 [(R)-1]
- Dunnett's test p vs vehicle, PR break points normalized to baseline (rats [5]; 3.0 mg/kg i.p.): < 0.001
- Dunnett's test p vs vehicle, number of METH injections (rats [5]; 3.0 mg/kg i.p.): < 0.01
- Dunnett's test p vs vehicle, PR break points normalized to baseline (rats [5]; 10 mg/kg i.p.): < 0.001
- Dunnett's test p vs vehicle, number of METH injections (rats [5]; 10 mg/kg i.p.): < 0.01

Compound: CN(C)C(=O)N[C@H]1CC[C@H](CCN2CCN(c3cccc(Cl)c3Cl)CC2)CC1 [Compound 6, cariprazine]
- D3R-preferential (D3R [6]): approximately 10 fold

Compound: COc1ccccc1N1CCN(CCCCNC(=O)c2ccc3ccccc3c2)CC1 [Compound 8]
- outcome of clinical trials for cocaine abuse (humans): failed in clinical trials for cocaine abuse

Compound: CCCN1CCC[C@@H]2Cc3n[nH]cc3C[C@H]21 [quinpirole, reference compound]
- yawning (rhesus monkeys [7]; cocaine-naïve rhesus monkeys): induces robust yawning

Compound: O=C(NC/C=C/CN1CCN(c2cccc(Cl)c2Cl)CC1)c1ccc(-c2ccccn2)cc1 [Compound 3]
- PR METH self-administration (rats [8]; [16]): reduced PR METH self-administration
- PR METH self-administration (rats [8]; [17]): in contrast to 3

Compound: O=C(NCCC(O)CN1CCN(c2cccc(Cl)c2Cl)CC1)c1cc2ccccc2[nH]1 (racemic) [(±)-1, N-(4-(4-(2,3-dichlorophenyl)piperazin-1-yl)-3-hydroxybutyl)-1H-indole-2-carboxamide]
- hits in the receptor panel [9]: only “hit” a few
- cocaine choice, group data, posthoc comparison (cynomolgus monkeys; 0.01 mg/kg cocaine available as the alternative to food): significant increase in cocaine choice
- effect on cocaine choice curve (cynomolgus monkeys; seven cynomolgus monkeys, acute i.v., in all but one monkey): either shifted the cocaine choice curve to the left (4 subjects) or had no effect (2 subjects)
- effect on METH choice curve (rhesus monkeys [10]): produced a leftward shift of the METH choice curve
- effect on 7-OH DPAT-induced yawning (rats [4]): attenuated 7-OH DPAT-induced yawning in rats
- substitution for cocaine (monkeys [11]): does not substitute for cocaine
- Dunnett's test p vs vehicle, PR break points normalized to baseline (rats [5]; 3.0 mg/kg i.p.): > 0.05
- Dunnett's test p vs vehicle, number of METH injections (rats [5]; 3.0 mg/kg i.p.): > 0.05
- Dunnett's test p vs vehicle, PR break points normalized to baseline (rats [5]; 10 mg/kg i.p.): < 0.001
- Dunnett's test p vs vehicle, number of METH injections (rats [5]; 10 mg/kg i.p.): < 0.001
- effect on PR break points normalized to baseline responding (rats [5]; i.p., 3.0 and 10 mg/kg): significantly reduced PR break points
- effect on number of METH injections (PR) (rats [5]; i.p., 3.0 and 10 mg/kg): significantly and dose-dependently reduced METH injections

Compound: O=C(NCCCCN1CCN(c2cccc(Cl)c2Cl)CC1)c1ccc2c(c1)Cc1ccccc1-2 [Compound 2, N-(4-(4-(2,3-dichlorophenyl)piperazin-1-yl)butyl)-9H-fluorene-2-carboxamide]
- cue- and cocaine-induced reinstatement of cocaine seeking (rats [12]): blocked both cue- and cocaine-induced reinstatement of cocaine seeking
- break point, cocaine PR schedule (rats [13]): significantly lowered the break point

Compound: Cc1ncoc1-c1nnc(SCCCN2C[C@@H]3C[C@]3(c3ccc(C(F)(F)F)cc3F)C2)n1C [Compound 7]
- craving (tobacco smokers): transiently alleviated craving
- attentional bias, Stroop Task (abstinent smokers): partially attenuated an attentional bias
- approach bias [14]: reduced approach bias
- attentional bias to palatable food cues [14]: reduced

Compound: O=C(NCCCCN1CCN(c2cccc(Cl)c2Cl)CC1)c1ccc(-c2ccccn2)cc1 [Compound 17, N-(4-(4-(2,3-dichlorophenyl)piperazin-1-yl)butyl)-4-(pyridin-2-yl)benzamide]
- yawning (rhesus monkeys [7]; cocaine-naïve rhesus monkeys): failed to do so
- yawning (rhesus monkeys [7]; monkeys with a history of cocaine self-administration): induced yawning similar in magnitude to quinpirole
- PR METH self-administration (rats [8]; [16]): reduced PR METH self-administration
- PR METH self-administration (rats [8]; [17]): also reduced PR METH self-administration
- cocaine self-administration and cocaine-induced reinstatement (squirrel monkeys): failed to attenuate cocaine self-administration or cocaine-induced reinstatement
- cocaine- and food-maintained responding (rhesus monkeys [15]; monkeys, second-order schedule of reinforcement): decreased both cocaine- and food-maintained responding
- cocaine's discriminative stimulus effects (rhesus monkeys [15]; rhesus monkeys): attenuated cocaine’s discriminative stimulus effects
